According to patent US20130149311A1, “GFI1B MODULATION AND USES THEREOF” (INSTITUT DE RECHERCHES CLINIQUES DE MONTREAL, priority 2010, published 2013):

System: HSCs
Assay: N-Acetyl-Cystein (NAC) feeding of plpC-treated Gfi1b^fl/fl and MxCre tg Gfi1b^fl/fl mice; hematological compartments and HSC numbers by flow cytometry
Type: in vivo
Conditions: for Number of HSCs in BM NAC treatment / % Lin^− cells in BM NAC treatment / Number of BM cells × 10^6 NAC treatment / Number of HSCs in Spleen NAC treatment / Number of HSCs per 1 ml blood NAC treatment / Number of Lin^− cells × 10^6 NAC treatment / Number of splenocytes × 10^6 NAC treatment: plpC-treated, fed daily with N-Acetyl-Cystein, mean ± SEM
Method: Treatment. MxCre tg Gfi1^fl/fl or Gfi1b^fl/fl mice were injected with polyinosinic-polycytidylic acid (plpC) (Sigma-Aldrich) at a dose of 500 μg per injection every other day for a total of 5 injections. As control, wt or Gfi1b^fl/fl mice not carrying the MxCre tg were injected with plpC. With regard to N-Acetyl-Cystein (Sigma-Aldrich, Mississagua) treatment, mice were fed every day with 500 μl N-Acety-Cystein (50 mg/ml)
Flow cytometry analysis, sorting of HSC and progenitors. HSCs and progenitors were analyzed with a LSR™, or Cyan flow cytometers and HSC were sorted with a MoFlo™ from adult mouse bone marrow as described previously (Kiel et al., 2005, supra; Adolfsson J et al., Cell 2005; 121:295-306). The BrdU experiments and the determination of cell cycle phases by Hoechst staining was done according to described procedures (Wilson et al., 2005, supra). Reactive oxygen species (ROS) were analyzed by staining HSCs with 5-(and-6)-carboxy-2′,7′-dichlorodihydrofluorescein diacetate (carboxy-H2DCFDA) (Invitrogen, Burlington, Canada) for 30 min at 37° C. After staining, cells were analyzed by flow cytometry for level of ROS in HSCs.
To verify whether loss of Gfi1b activates HSCs and that this activation leads to increased level of ROS which in turn could lead to an expansion of HSCs, mice were fed with N-Acetyl-Cystein (NAC), which counteracts the effects of ROS (Ito K, et al. Nat Med. April 2006; 12(4):446-451).

[1] = Gfi1b^fl/fl Mx-Cre tg (Gfi1b deficient) mice
[2] = Gfi1b^fl/fl Mx-Cre tg vs Gfi1b^fl/fl, both NAC treated

With `CC(=O)N[C@@H](CS)C(=O)O` [NAC, N-Acetyl-Cystein] the “Number of HSCs in BM NAC treatment” value (Gfi1b^fl/fl (wt) mice, HSCs = Lin^−, Sca-1^+, Kit^+, CD150^+, CD48^−) was 1700 ± 700,, the “% Lin^− cells in BM NAC treatment” value (Gfi1b^fl/fl (wt) mice) was 1.5 ± 0.1, % and the “Number of BM cells × 10^6 NAC treatment” value (Gfi1b^fl/fl (wt) mice) was 45 ± 4, × 10^6. For the same compound, the “Number of HSCs in Spleen NAC treatment” value (Gfi1b^fl/fl (wt) mice) was 197 ± 77,, the “Number of HSCs per 1 ml blood NAC treatment” value (Gfi1b^fl/fl (wt) mice) was 11 ± 1, per 1 ml blood and the “Number of Lin^− cells × 10^6 NAC treatment” value (Gfi1b^fl/fl (wt) mice) was 0.8 ± 0.1, × 10^6. The “Number of splenocytes × 10^6 NAC treatment” value (Gfi1b^fl/fl (wt) mice) was 86 ± 22, × 10^6, the “% Lin^− cells in BM NAC treatment” value [1] was 2.45 ± 0.5, % and the “Number of BM cells × 10^6 NAC treatment” value [1] was 44 ± 2, × 10^6. For the same compound, the “Number of HSCs in BM NAC treatment” value [1] was 5700 ± 1100,, the “Number of HSCs in Spleen NAC treatment” value [1] was 6000 ± 2000, and the “Number of HSCs per 1 ml blood NAC treatment” value [1] was 307 ± 100, per 1 ml blood. For the same compound, the “Number of Lin^− cells × 10^6 NAC treatment” value [1] was 1.1 ± 0.4, × 10^6, the “Number of splenocytes × 10^6 NAC treatment” value [1] was 104 ± 22, × 10^6 and the “% Lin^− cells in BM NAC treatment, fold change” value [2] was 1.6. The “Number of BM cells NAC treatment, fold change” value [2] was 1, the “Number of HSCs in BM NAC treatment, fold change” value [2] was 3 and the “Number of HSCs in Spleen NAC treatment, fold change” value [2] was 30. For the same compound, the “Number of HSCs per 1 ml blood NAC treatment, fold change” value [2] was 28, the “Number of Lin^− cells NAC treatment, fold change” value [2] was 1.4 and the “Number of splenocytes NAC treatment, fold change” value [2] was 1.2. For the same compound, the “Effect on expansion of Gfi1b^ko/ko HSCs (frequencies and absolute numbers)” value (bone marrow, spleen and peripheral blood, NAC-treated vs untreated Gfi1b-deficient mice) was “significantly limited the expansion”.
